A value given as a limit tells only on which side of the number the result lay.

The experiment deals with ATF4 luciferase reporter in HEK293T cells. The experiment is described as follows: ATF4-Luc assay (ATF4 luciferase reporter, tunicamycin-treated HEK293T cells). The following applies: Homo sapiens, HEK-293T; HEK293T cells carrying the ATF4 luciferase reporter, 1 μg/mL tunicamycin, 7 hours. It counts as cell-based, human.
On to `O=C(COc1ccc(F)c(F)c1)NC12CCC(NC(=O)COc3ccc(C(F)(F)F)nc3)(CC1)C(O)C2` (stereo not shown) [Compound 359, 2-(3,4-difluorophenoxy)-N-[3-hydroxy-4-(2-{[6-(trifluoromethyl)pyridin-3-yl]oxy}acetamido)bicyclo[2.2.2]octan-1-yl]acetamide], for which the EC50 (in general, the concentration at which the effect is half-maximal) lay in the range of 10 to 50 nM.

Take `O=C(COc1ccc(Cl)c(F)c1)NC12CC(NC(=O)Cc3noc4ccccc34)(C1)C2` [Compound 360, 2-(1,2-benzoxazol-3-yl)-N-{3-[2-(4-chloro-3-fluorophenoxy)acetamido]bicyclo[1.1.1]pentan-1-yl}acetamide]: the EC50 is more than 2000 nM.

On to `O=C(COc1ccc(Cl)c(F)c1)NC12CC(NC(=O)Cc3cccc(OC(F)(F)F)c3)(C1)C2` [Compound 361, 2-(4-chloro-3-fluorophenoxy)-N-(3-{2-[3-(trifluoromethoxy)phenyl]acetamido}bicyclo[1.1.1]pentan-1-yl)acetamide], for which the EC50 was more than 2000 nM.

Take `O=C(COc1ccc(F)c(F)c1)NC12CCC(NC(=O)COc3ccc4c(c3)OC(F)(F)O4)(CC1)C(O)C2` (stereo not shown) [Compound 362, 2-[(2,2-difluoro-2H-1,3-benzodioxol-5-yl)oxy]-N-{4-[2-(3,4-difluorophenoxy)acetamido]-2-hydroxybicyclo[2.2.2]octan-1-yl}acetamide]: the EC50 was less than 10 nM.

Take `O=C(COc1ccc(F)c(F)c1)NC12CCC(NC(=O)COc3ccc(F)c(F)c3)(CC1)C(O)C2` (stereo not shown) [Compound 363, N,N′-(2-hydroxybicyclo[2.2.2]octane-1,4-diyl)bis[2-(3,4-difluorophenoxy)acetamide]]: the EC50 is less than 10 nM.

`O=C(COc1ccc(F)c(F)c1)NC12CCC(NC(=O)COc3ccc(F)cc3)(CC1)C(O)C2` (stereo not shown) [Compound 364, 2-(3,4-difluorophenoxy)-N-{4-[2-(4-fluorophenoxy)acetamido]-3-hydroxybicyclo[2.2.2]octan-1-yl}acetamide]: the EC50 is less than 10 nM.

`O=C(COc1ccc(Cl)c(F)c1)NC12CCC(NC(=O)COc3ccc(Cl)c(F)c3)(CC1)C(F)C2` (stereo not shown) [Compound 365, N,N′-(2-fluorobicyclo[2.2.2]octane-1,4-diyl)bis[2-(4-chloro-3-fluorophenoxy)acetamide]]: the concentration giving a half-maximal response (EC50) was less than 10 nM.

On to `O=C(COc1ccc(Cl)c(F)c1)NC12CCC(NC(=O)COc3ccc(C(F)(F)F)nc3)(CC1)C(F)C2` (stereo not shown) [Compound 366, 2-(4-chloro-3-fluorophenoxy)-N-[3-fluoro-4-(2-{[6-(trifluoromethyl)pyridin-3-yl]oxy}acetamido)bicyclo[2.2.2]octan-1-yl]acetamide], for which the EC50 lay within 10 to 50 nM.

On to `O=C(/C=C/c1ccc(Cl)c(Cl)c1)NC12CC(NC(=O)/C=C/c3ccc(Cl)c(Cl)c3)(C1)C2` [Compound 367, (2E,2′E)-N,N′-(bicyclo[1.1.1]pentane-1,3-diyl)bis[3-(3,4-dichlorophenyl)prop-2-enamide]], for which the EC50 was more than 2000 nM.

In the case of `O=C(COc1ccc(Cl)cc1)NC12CC(NC(=O)COc3ccc(Cl)c(F)c3)(C1)C2` [Compound 368, 2-(4-chloro-3-fluorophenoxy)-N-{3-[2-(4-chlorophenoxy)acetamido]bicyclo[1.1.1]pentan-1-yl}acetamide], the EC50 was less than 10 nM.

For `Cn1nc(C(F)(F)F)cc1OCC(=O)NC12CC(NC(=O)COc3ccc(Cl)c(F)c3)(C1)C2` [Compound 369, 2-(4-chloro-3-fluorophenoxy)-N-[3-(2-{[1-methyl-3-(trifluoromethyl)-1H-pyrazol-5-yl]oxy}acetamido)bicyclo[1.1.1]pentan-1-yl]acetamide], the EC50 is more than 2000 nM.

Consider `O=C(/C=C/c1ccc(C(F)(F)F)cc1)NC12CC(NC(=O)/C=C/c3ccc(C(F)(F)F)cc3)(C1)C2` [Compound 370, (2E,2′E)-N,N′-(bicyclo[1.1.1]pentane-1,3-diyl)bis{3-[4-(trifluoromethyl)phenyl]prop-2-enamide}], for which the half-maximal effective concentration (EC50) was more than 2000 nM.

On to `O=C(COc1ccc(Cl)c(F)c1)NC12CC(NC(=O)COc3ccnn3C3CC3)(C1)C2` [Compound 371, 2-(4-chloro-3-fluorophenoxy)-N-(3-{2-[(1-cyclopropyl-1H-pyrazol-5-yl)oxy]acetamido}bicyclo[1.1.1]pentan-1-yl)acetamide], for which the EC50 lay within 250 to 500 nM.

For `Cc1nn(C)c(C)c1OCC(=O)NC12CC(NC(=O)COc3ccc(Cl)c(F)c3)(C1)C2` [Compound 374, 2-(4-chloro-3-fluorophenoxy)-N-(3-{2-[(1,3,5-trimethyl-1H-pyrazol-4-yl)oxy]acetamido}bicyclo[1.1.1]pentan-1-yl)acetamide], the EC50 is more than 2000 nM.

As for `CN(C(=O)COc1ccc(Cl)c(F)c1)C12CCC(NC(=O)COc3ccc(Cl)c(F)c3)(CC1)C[C@@H]2O` [Compound 375, 2-(4-chloro-3-fluorophenoxy)-N-{(2S)-4-[2-(4-chloro-3-fluorophenoxy)acetamido]-2-hydroxybicyclo[2.2.2]octan-1-yl}-N-methylacetamide], the 50% effective concentration (EC50) fell in the range of 50 to 250 nM.

Take `O=C(/C=C/c1ccc(OC(F)(F)F)cn1)NC12CC(NC(=O)COc3ccc(Cl)c(F)c3)(C1)C2` [Compound 376, (2E)-N-{3-[2-(4-chloro-3-fluorophenoxy)acetamido]bicyclo[1.1.1]pentan-1-yl}-3-[5-(trifluoromethoxy)pyridin-2-yl]prop-2-enamide]: the EC50 is 250 to 500 nM.

Take `CN(C(=O)COc1ccc(C(F)(F)F)nc1)C12CCC(NC(=O)COc3ccc(Cl)c(F)c3)(CC1)C[C@@H]2O` [Compound 377, N-{(2S)-4-[2-(4-chloro-3-fluorophenoxy)acetamido]-2-hydroxybicyclo[2.2.2]octan-1-yl}-N-methyl-2-{[6-(trifluoromethyl)pyridin-3-yl]oxy}acetamide]: the 50% effective concentration (EC50) is 500 to 2000 nM.

With `O=C(COc1ccnc(C(F)F)c1)NC12CC(NC(=O)COc3ccc(Cl)c(F)c3)(C1)C2` [Compound 378, 2-(4-chloro-3-fluorophenoxy)-N-[3-(2-{[2-(difluoromethyl)pyridin-4-yl]oxy}acetamido)bicyclo[1.1.1]pentan-1-yl]acetamide], the 50% effective concentration (EC50) lay within 10 to 50 nM.

As for `O=C(COc1ccc(F)c(F)c1)NC12CC(NC(=O)COc3ccc4c(c3)OC(F)(F)O4)(C1)C2` [Compound 379, 2-[(2,2-difluoro-2H-1,3-benzodioxol-5-yl)oxy]-N-{3-[2-(3,4-difluorophenoxy)acetamido]bicyclo[1.1.1]pentan-1-yl}acetamide], the half-maximal effective concentration (EC50) was less than 10 nM.

For `O=C(COc1ccc(Cl)c(F)c1)NC12CCC(NC(=O)COc3ccc4c(c3)OC(F)(F)O4)(C1)C2` [Compound 380, 2-(4-chloro-3-fluorophenoxy)-N-(4-{2-[(2,2-difluoro-2H-1,3-benzodioxol-5-yl)oxy]acetamido}bicyclo[2.1.1]hexan-1-yl)acetamide], the EC50 fell in the range of 10 to 50 nM.

In the case of `Cn1ccc(OCC(=O)NC23CC(NC(=O)COc4ccc(Cl)c(F)c4)(C2)C3)n1` [Compound 381, 2-(4-chloro-3-fluorophenoxy)-N-(3-{2-[(1-methyl-1H-pyrazol-3-yl)oxy]acetamido}bicyclo[1.1.1]pentan-1-yl)acetamide], the EC50 lay within 500 to 2000 nM.

For `O=C(COc1ccc(Cl)c(F)c1)NC12CCC(NC(=O)COc3cnc(C(F)F)cn3)(CC1)[C@@H](O)C2` [Compound 382, 2-(4-chloro-3-fluorophenoxy)-N-[(3S)-4-(2-{[5-(difluoromethyl)pyrazin-2-yl]oxy}acetamido)-3-hydroxybicyclo[2.2.2]octan-1-yl]acetamide], the EC50 was more than 2000 nM.

On to `O=C(COc1ccc2c(c1)OC(F)(F)O2)NC12CC(NC(=O)COc3cnc(C(F)F)cn3)(C1)C2` [Compound 383, 2-[(2,2-difluoro-2H-1,3-benzodioxol-5-yl)oxy]-N-[3-(2-{[5-(difluoromethyl)pyrazin-2-yl]oxy}acetamido)bicyclo[1.1.1]pentan-1-yl]acetamide], for which the EC50 is more than 2000 nM.

As for `O=C(COc1ccc(Cl)c(F)c1)NC12CC(NC(=O)COc3cnc(C(F)F)cn3)(C1)C2` [Compound 384, 2-(4-chloro-3-fluorophenoxy)-N-[3-(2-{[5-(difluoromethyl)pyrazin-2-yl]oxy}acetamido)bicyclo[1.1.1]pentan-1-yl]acetamide], the EC50 is more than 2000 nM.

For the compound `Cc1cc(OCC(=O)NC23CC(NC(=O)COc4ccc(Cl)c(F)c4)(C2)C3)n(C)n1` [Compound 385, 2-(4-chloro-3-fluorophenoxy)-N-(3-{2-[(1,3-dimethyl-1H-pyrazol-5-yl)oxy]acetamido}bicyclo[1.1.1]pentan-1-yl)acetamide], the concentration giving a half-maximal response (EC50) lay in the range of 500 to 2000 nM.

In the case of `O=C(CNC(=O)c1ccc(OC(F)(F)F)cn1)NC12CC(NC(=O)COc3ccc(Cl)c(F)c3)(C1)C2` [Compound 386, N-[2-({3-[2-(4-chloro-3-fluorophenoxy)acetamido]bicyclo[1.1.1]pentan-1-yl}amino)-2-oxoethyl]-5-(trifluoromethoxy)pyridine-2-carboxamide], the 50% effective concentration (EC50) was more than 2000 nM.

On to `N#CC1CC2(NC(=O)COc3ccc(Cl)c(F)c3)CCC1(NC(=O)COc1ccc(Cl)c(F)c1)CC2` (stereo not shown) [Compound 387, N,N′-(2-cyanobicyclo[2.2.2]octane-1,4-diyl)bis[2-(4-chloro-3-fluorophenoxy)acetamide]], for which the EC50 is less than 10 nM.

Take `O=C(COc1ccc(C(F)F)cc1)NC12CC(NC(=O)COc3ccc(Cl)c(F)c3)(C1)C2` [Compound 388, 2-(4-chloro-3-fluorophenoxy)-N-(3-{2-[4-(difluoromethyl)phenoxy]acetamido}bicyclo[1.1.1]pentan-1-yl)acetamide]: the EC50 was 10 to 50 nM.

For the compound `O=C(COc1ccc(C(F)F)cc1)NC12CC(NC(=O)COc3ccc(C(F)F)cc3)(C1)C2` [Compound 389, N,N′-(bicyclo[1.1.1]pentane-1,3-diyl)bis{2-[4-(difluoromethyl)phenoxy]acetamide}], the EC50 fell in the range of 250 to 500 nM.

`O=C(COc1ccc(Cl)c(F)c1)NC12CCC(NC(=O)COc3ccc(Cl)c(F)c3)(CC1)C(C(=O)O)C2` (stereo not shown) [Compound 390, 1,4-bis[2-(4-chloro-3-fluorophenoxy)acetamido]bicyclo[2.2.2]octane-2-carboxylic Acid]: the EC50 was in the range of 50 to 250 nM.

Turning to `O=C(COc1ccc2c(c1)OC(F)(F)O2)NC12CCC(NC(=O)COc3ccc4c(c3)OC(F)(F)O4)(C1)C2` [Compound 391, N,N′-(bicyclo[2.1.1]hexane-1,4-diyl)bis{2-[(2,2-difluoro-2H-1,3-benzodioxol-5-yl)oxy]acetamide}], the 50% effective concentration (EC50) lay in the range of 250 to 500 nM.

The values above are taken from US20240166652A1, “MODULATORS OF THE INTEGRATED STRESS PATHWAY” (Calico Life Sciences LLC, priority 2017, published 2024).
